Results reported in ChEMBL document CHEMBL1201862, “PubChem BioAssay data set” (2004).
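Where inhibition never reached the appropriate level, the endpoint shown equals the highest concentration tested. Otherwise, values were interpolated linearly from a five-concentration, 48-hour dose response in 96-well plates. GI50 marks 50% less growth.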 Activity calls are given as the source filed them. Rule as the data show it: active = GI50 up to about 1.1 µM and inactive = higher.

What was measured:
Assay in all cases: NCI-60 cell line screen, 48 h
[1] = test system: RXF 393
[2] = test system: SNB-19
[3] = test system: NCI/ADR-RES
[4] = test system: Malme-3M
[5] = test system: A549
[6] = test system: T47D
[7] = test system: LOX IMVI
[8] = test system: U-251
[9] = test system: MDA-MB-231
[10] = test system: IGROV-1
[11] = test system: HCT-116
[12] = test system: SK-OV-3
[13] = test system: SR
[14] = test system: MOLT-4
[15] = test system: OVCAR-5
[16] = test system: NCI-H460
[17] = test system: ACHN
[18] = test system: TK-10
[19] = test system: OVCAR-4
[20] = test system: MDA-N

Row | SMILES | GI50 [1] | GI50 [2] | GI50 [3] | GI50 [4] | GI50 [5] | GI50 [6] | GI50 [7] | GI50 [8] | GI50 [9] | GI50 [10] | GI50 [11] | GI50 [12] | GI50 [13] | GI50 [14] | GI50 [15] | GI50 [16] | GI50 [17] | GI50 [18] | GI50 [19] | GI50 [20]
1 | CC1(C)[C@@H]2C[C@H]1C(Cc1ccc(C[C@H]3c4cc(-c5ccccn5)ncc4[C@H]4C[C@@H]3C4(C)C)cc1)c1cc(-c3ccccn3)ncc12 (some centres undefined) | 3.58 µM (inactive) | 3.32 µM (inactive) | 2.71 µM (inactive) | 4.53 µM (inactive) | 0.807 µM (active) | 2.52 µM (inactive) | 0.843 µM (active) | 1.01 µM (active) | 5.35 µM (inactive) | 1.25 µM (inactive) | 0.75 µM (active) | 7.83 µM (inactive) | 0.561 µM (active) | 0.431 µM (active) | 1.46 µM (inactive) | 0.916 µM (active) | 0.971 µM (active) | 0.841 µM (active) | – | –
2 | CCCCCCCCCCCCC1NC(=N)NC2(CCCO2)C1C(=O)OC (centres undefined) | 3 µM (inactive) | 2.76 µM (inactive) | 17.6 µM (inactive) | 2.23 µM (inactive) | 13.1 µM (inactive) | 6.4 µM (inactive) | 1.69 µM (inactive) | 1.64 µM (inactive) | 4.12 µM (inactive) | 2.3 µM (inactive) | 2.47 µM (inactive) | 10 µM (inactive) | 2.33 µM (inactive) | 1.75 µM (inactive) | 8.17 µM (inactive) | 2.99 µM (inactive) | 10.4 µM (inactive) | 4.79 µM (inactive) | 5.51 µM (inactive) | –
3 | CN(C)CCNC(=O)c1cccc2nc3c4ccccc4c4ccccc4c3nc12 | 2.06 µM (inactive) | 3.48 µM (inactive) | – | 1.8 µM (inactive) | 2.74 µM (inactive) | 8.13 µM (inactive) | 1.64 µM (inactive) | 2 µM (inactive) | 1.82 µM (inactive) | 3.38 µM (inactive) | 1.53 µM (inactive) | 6.52 µM (inactive) | 0.773 µM (active) | 0.748 µM (active) | 7.67 µM (inactive) | 0.875 µM (active) | 5.01 µM (inactive) | 5.38 µM (inactive) | 1.8 µM (inactive) | 1.65 µM (inactive)
4 | NC(=O)CN1C=CCC(C(N)=O)=C1 [CARICOTAMIDE] | > 100 µM (inactive) | > 100 µM (inactive) | > 100 µM (inactive) | > 100 µM (inactive) | > 100 µM (inactive) | > 100 µM (inactive) | > 100 µM (inactive) | > 100 µM (inactive) | – | > 100 µM (inactive) | > 100 µM (inactive) | > 100 µM (inactive) | – | > 100 µM (inactive) | > 100 µM (inactive) | > 100 µM (inactive) | > 100 µM (inactive) | – | > 100 µM (inactive) | > 100 µM (inactive)
5 | O=C1/C(=c2\s/c(=C\c3ccccc3)c(=O)n2-c2ccccc2)SC(=S)N1c1ccccc1 | 34 µM (inactive) | 46.1 µM (inactive) | 28 µM (inactive) | 28.7 µM (inactive) | 34.8 µM (inactive) | – | 26.9 µM (inactive) | 23.4 µM (inactive) | 20.5 µM (inactive) | 25 µM (inactive) | 58.9 µM (inactive) | 21.9 µM (inactive) | 10.7 µM (inactive) | 45.4 µM (inactive) | > 100 µM (inactive) | 41 µM (inactive) | 22.3 µM (inactive) | 28.9 µM (inactive) | 29.4 µM (inactive) | 94.6 µM (inactive)
6 | CNc1ccc(-c2nc3cc(C)ccc3o2)cc1 | 22.4 µM (inactive) | 57.5 µM (inactive) | 64.6 µM (inactive) | > 100 µM (inactive) | > 100 µM (inactive) | 13.8 µM (inactive) | > 100 µM (inactive) | 58.6 µM (inactive) | 40.1 µM (inactive) | > 100 µM (inactive) | > 100 µM (inactive) | 18.2 µM (inactive) | – | 34.9 µM (inactive) | > 100 µM (inactive) | > 100 µM (inactive) | 57.3 µM (inactive) | 67.8 µM (inactive) | > 100 µM (inactive) | > 100 µM (inactive)
7 | O=C(CN1C(=O)CC(c2ccccc2)(c2ccccc2)C1=O)N1CCN(CCO)CC1 | > 100 µM (inactive) | > 100 µM (inactive) | > 100 µM (inactive) | – | > 100 µM (inactive) | > 100 µM (inactive) | > 100 µM (inactive) | > 100 µM (inactive) | > 100 µM (inactive) | > 100 µM (inactive) | > 100 µM (inactive) | > 100 µM (inactive) | – | > 100 µM (inactive) | > 100 µM (inactive) | – | > 100 µM (inactive) | > 100 µM (inactive) | > 100 µM (inactive) | –
8 | O=C(Nc1ccc(Cl)cc1)c1cc(S(=O)(=O)Nc2nnc3c(Cl)cc(C(F)(F)F)cn23)c(S)cc1Cl | > 100 µM (inactive) | 52.2 µM (inactive) | > 100 µM (inactive) | > 100 µM (inactive) | > 100 µM (inactive) | > 100 µM (inactive) | – | 56.5 µM (inactive) | 33.8 µM (inactive) | > 100 µM (inactive) | 68.1 µM (inactive) | 41.9 µM (inactive) | 29.6 µM (inactive) | 66.8 µM (inactive) | > 100 µM (inactive) | 43.1 µM (inactive) | > 100 µM (inactive) | > 100 µM (inactive) | > 100 µM (inactive) | –
9 | CN(C)c1ccc2nc(CC(O)(C(F)(F)F)C(F)(F)F)ccc2c1 | > 10 µM (inactive) | > 10 µM (inactive) | > 10 µM (inactive) | > 10 µM (inactive) | > 10 µM (inactive) | > 10 µM (inactive) | > 10 µM (inactive) | > 10 µM (inactive) | > 10 µM (inactive) | > 10 µM (inactive) | > 10 µM (inactive) | > 10 µM (inactive) | – | > 10 µM (inactive) | > 10 µM (inactive) | > 10 µM (inactive) | > 10 µM (inactive) | > 10 µM (inactive) | > 10 µM (inactive) | > 10 µM (inactive)
10 | O=C(NC1(C(=O)O)CCCC1)c1ccccc1 | > 100 µM (inactive) | > 100 µM (inactive) | > 100 µM (inactive) | – | > 100 µM (inactive) | > 100 µM (inactive) | > 100 µM (inactive) | > 100 µM (inactive) | > 100 µM (inactive) | > 100 µM (inactive) | > 100 µM (inactive) | > 100 µM (inactive) | – | > 100 µM (inactive) | > 100 µM (inactive) | > 100 µM (inactive) | > 100 µM (inactive) | > 100 µM (inactive) | – | > 100 µM (inactive)
11 | O=C(O)CCSCc1ccc(I)cc1 | 96.4 µM (inactive) | > 100 µM (inactive) | > 100 µM (inactive) | > 100 µM (inactive) | > 100 µM (inactive) | > 100 µM (inactive) | > 100 µM (inactive) | > 100 µM (inactive) | > 100 µM (inactive) | > 100 µM (inactive) | > 100 µM (inactive) | > 100 µM (inactive) | – | > 100 µM (inactive) | > 100 µM (inactive) | > 100 µM (inactive) | > 100 µM (inactive) | > 100 µM (inactive) | > 100 µM (inactive) | > 100 µM (inactive)
12 | Oc1cc(-c2ccc3ccccc3c2)nc2ncccc12 | – | 17.8 µM (inactive) | 4.4 µM (inactive) | 13.1 µM (inactive) | 4.68 µM (inactive) | 11.6 µM (inactive) | 9.93 µM (inactive) | – | 9.02 µM (inactive) | 6.4 µM (inactive) | – | 19.6 µM (inactive) | 2.14 µM (inactive) | 4.06 µM (inactive) | 31.3 µM (inactive) | – | 31.9 µM (inactive) | 19.8 µM (inactive) | 12.1 µM (inactive) | –
13 | CC(C)C(/C=C/c1ccc(Cl)cc1)=N\NC(=S)NN | 15 µM (inactive) | 76.4 µM (inactive) | 17.7 µM (inactive) | 25.2 µM (inactive) | 31.6 µM (inactive) | 6.59 µM (inactive) | 7.76 µM (inactive) | 6.61 µM (inactive) | > 100 µM (inactive) | 20.2 µM (inactive) | 2.99 µM (inactive) | 33.7 µM (inactive) | – | 4.15 µM (inactive) | 30.9 µM (inactive) | 5.26 µM (inactive) | 10.6 µM (inactive) | 8.87 µM (inactive) | – | 26.2 µM (inactive)
14 | CC1CCC(=O)C(C(=O)CC2CC(=O)N(C)C(=O)C2)C1 (centres undefined) | > 100 µM (inactive) | > 100 µM (inactive) | > 100 µM (inactive) | > 100 µM (inactive) | > 100 µM (inactive) | > 100 µM (inactive) | > 100 µM (inactive) | > 100 µM (inactive) | > 100 µM (inactive) | > 100 µM (inactive) | > 100 µM (inactive) | > 100 µM (inactive) | – | > 100 µM (inactive) | > 100 µM (inactive) | > 100 µM (inactive) | > 100 µM (inactive) | > 100 µM (inactive) | > 100 µM (inactive) | –
15 | Cc1cccc(/C=C2\CCCCCC2=O)c1 | – | > 100 µM (inactive) | – | > 100 µM (inactive) | > 100 µM (inactive) | > 100 µM (inactive) | > 100 µM (inactive) | > 100 µM (inactive) | > 100 µM (inactive) | > 100 µM (inactive) | > 100 µM (inactive) | > 100 µM (inactive) | > 100 µM (inactive) | 99.8 µM (inactive) | > 100 µM (inactive) | 99.8 µM (inactive) | > 100 µM (inactive) | > 100 µM (inactive) | > 100 µM (inactive) | > 100 µM (inactive)
